{"source": "patent US20210382058A1", "about": "“PATIENT SELECTION FOR TREATMENT OF MYC POSITIVE CANCERS WITH INDENOISOQUINOLINES” (Purdue Research Foundation, priority 2020, published 2021)", "key": {"[1]": {"tested_on": "MYC protein expression in MCF-7 breast cancer cells", "experiment": "Western blotting of MYC protein level in MCF-7 cells", "format": "cell-based, human", "settings": "Homo sapiens, MCF7; western blotting, MCF-7 cells, 0.5, 1, 2, and 4 μM, 24 hours; read-out: MYC Inhibition", "method_in_brief": "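Immunoblotting with ECL detection quantified MYC, with GAPDH (1:2000) as reference and anti-MYC at 1:1000.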"}, "NCI-60 cancer cell lines": {"tested_on": "NCI-60 cancer cell lines", "experiment": "NCI-60 cancer cell line drug screen (GI50, MGM)", "format": "cell-based, human", "settings": "Homo sapiens; for GI50: read-out: Antiproliferative Activities [GI50 (μM)]", "method": "Cancer cells were incubated with the test compounds at five concentrations ranging from 100 μM to 10 nM for 48 h. […] The approximate average of GI50 values across the entire panel of NCI-60 cancer cell lines for each compound was recorded as the MGM value."}, "human topoisomerase I": {"target": "T1, human topoisomerase I (Homo sapiens, UniProt P11387)", "T1 sequence (P11387 1-765)": "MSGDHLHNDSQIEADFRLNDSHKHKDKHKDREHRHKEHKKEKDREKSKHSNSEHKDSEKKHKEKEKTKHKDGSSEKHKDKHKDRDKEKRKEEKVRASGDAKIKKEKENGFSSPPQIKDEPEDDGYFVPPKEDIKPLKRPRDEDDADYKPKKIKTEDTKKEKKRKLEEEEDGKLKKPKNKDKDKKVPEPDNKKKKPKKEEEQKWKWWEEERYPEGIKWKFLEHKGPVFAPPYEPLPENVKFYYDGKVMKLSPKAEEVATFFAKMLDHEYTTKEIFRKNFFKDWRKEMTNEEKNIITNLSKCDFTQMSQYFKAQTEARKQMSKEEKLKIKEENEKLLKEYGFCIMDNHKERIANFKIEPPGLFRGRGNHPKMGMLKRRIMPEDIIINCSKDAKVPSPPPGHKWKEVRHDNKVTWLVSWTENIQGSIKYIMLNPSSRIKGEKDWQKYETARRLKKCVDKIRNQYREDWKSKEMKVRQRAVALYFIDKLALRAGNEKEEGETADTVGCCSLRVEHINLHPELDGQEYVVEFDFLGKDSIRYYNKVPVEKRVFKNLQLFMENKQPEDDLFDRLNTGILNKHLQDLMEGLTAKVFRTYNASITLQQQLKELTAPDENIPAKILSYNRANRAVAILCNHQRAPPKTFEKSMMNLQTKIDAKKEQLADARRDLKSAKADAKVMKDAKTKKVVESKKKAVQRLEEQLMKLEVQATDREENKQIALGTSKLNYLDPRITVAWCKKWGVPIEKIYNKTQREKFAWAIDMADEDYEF", "settings": "relative topoisomerase I inhibition levels, previously determined, six levels (0 - 5, +++++ = 5); cited from earlier work"}}, "note": "Where two headings read alike, the source gives them in different places.", "data": [{"smiles": "CN(C)CCCn1c2c(c3ccc(N4CCNCC4)cc3c1=O)C(=O)c1ccccc1-2", "note": "[Compound 25]", "values": [{"measurement": "minimal effective concentration", "setting": "[1]", "value": "> 4", "unit": "µM"}, {"measurement": "GI50", "setting": "NCI-60 cancer cell lines; 786-0, Renal Cancer, 786-0", "value": 1.34, "unit": "µM"}, {"measurement": "GI50", "setting": "NCI-60 cancer cell lines; A549, Non-Small Cell Lung Cancer, A549/ATCC", "value": 0.22, "unit": "µM"}, {"measurement": "GI50", "setting": "NCI-60 cancer cell lines; ACHN, Renal Cancer, ACHN", "value": 0.39, "unit": "µM"}, {"measurement": "GI50", "setting": "NCI-60 cancer cell lines; BT-549, Breast Cancer, BT-549", "value": 1.27, "unit": "µM"}, {"measurement": "GI50", "setting": "NCI-60 cancer cell lines; CAKI-1, Renal Cancer, CAKI-1", "value": 1.05, "unit": "µM"}, {"measurement": "GI50", "setting": "NCI-60 cancer cell lines; CCRF-CEM, Leukemia, CCRF-CEM", "value": 0.34, "unit": "µM"}, {"measurement": "GI50", "setting": "NCI-60 cancer cell lines; COLO 205, Colon Cancer, COLO 205", "value": 0.62, "unit": "µM"}, {"measurement": "GI50", "setting": "NCI-60 cancer cell lines; DU-145, Prostate Cancer, DU-145", "value": 0.33, "unit": "µM"}, {"measurement": "GI50", "setting": "NCI-60 cancer cell lines; EKVX, Non-Small Cell Lung Cancer, EKVX", "value": 1.18, "unit": "µM"}, {"measurement": "GI50", "setting": "NCI-60 cancer cell lines; HCC 2998, Colon Cancer, HCC-2998", "value": 0.35, "unit": "µM"}, {"measurement": "GI50", "setting": "NCI-60 cancer cell lines; HCT-15, Colon Cancer, HCT-15", "value": 0.73, "unit": "µM"}, {"measurement": "GI50", "setting": "NCI-60 cancer cell lines; HL-60, Leukemia, HL-60(TB)", "value": 1.17, "unit": "µM"}, {"measurement": "GI50", "setting": "NCI-60 cancer cell lines; HOP-62, Non-Small Cell Lung Cancer, HOP-62", "value": 1.06, "unit": "µM"}, {"measurement": "GI50", "setting": "NCI-60 cancer cell lines; HOP-92, Non-Small Cell Lung Cancer, HOP-92", "value": 1.72, "unit": "µM"}, {"measurement": "GI50", "setting": "NCI-60 cancer cell lines; HT-29, Colon Cancer, HT29", "value": 0.35, "unit": "µM"}, {"measurement": "GI50", "setting": "NCI-60 cancer cell lines; Hs-578T, Breast Cancer, HS 578T", "value": 1.44, "unit": "µM"}, {"measurement": "GI50", "setting": "NCI-60 cancer cell lines; IGROV-1, Ovarian Cancer, IGROV1", "value": 0.84, "unit": "µM"}, {"measurement": "GI50", "setting": "NCI-60 cancer cell lines; K562, Leukemia, K-562", "value": 0.83, "unit": "µM"}, {"measurement": "GI50", "setting": "NCI-60 cancer cell lines; KM12, Colon Cancer, KM12", "value": 1.13, "unit": "µM"}, {"measurement": "GI50", "setting": "NCI-60 cancer cell lines; LOX IMVI, Melanoma, LOX IMVI", "value": 0.15, "unit": "µM"}, {"measurement": "GI50", "setting": "NCI-60 cancer cell lines; Leukemia, SR", "value": 0.31, "unit": "µM"}, {"measurement": "GI50", "setting": "NCI-60 cancer cell lines; MCF7, Breast Cancer, MCF7", "value": 0.3, "unit": "µM"}, {"measurement": "GI50", "setting": "NCI-60 cancer cell lines; MDA-MB-231, Breast Cancer, MDA-MB-231/ATCC", "value": 0.51, "unit": "µM"}, {"measurement": "GI50", "setting": "NCI-60 cancer cell lines; MDA-MB-435, Melanoma, MDA-MB-435", "value": 1.2, "unit": "µM"}, {"measurement": "GI50", "setting": "NCI-60 cancer cell lines; MDA-MB-468, Breast Cancer, MDA-MB-468", "value": 0.95, "unit": "µM"}, {"measurement": "GI50", "setting": "NCI-60 cancer cell lines; MOLT-4, Leukemia, MOLT-4", "value": 0.1, "unit": "µM"}, {"measurement": "GI50", "setting": "NCI-60 cancer cell lines; Malme-3M, Melanoma, MALME-3M", "value": 1.42, "unit": "µM"}, {"measurement": "GI50", "setting": "NCI-60 cancer cell lines; Melanoma, M14", "value": 1.05, "unit": "µM"}, {"measurement": "GI50", "setting": "NCI-60 cancer cell lines; NCI-H23, Non-Small Cell Lung Cancer, NCI-H23", "value": 1.05, "unit": "µM"}, {"measurement": "GI50", "setting": "NCI-60 cancer cell lines; NCI-H226, Non-Small Cell Lung Cancer, NCI-H226", "value": 0.56, "unit": "µM"}, {"measurement": "GI50", "setting": "NCI-60 cancer cell lines; NCI-H322M, Non-Small Cell Lung Cancer, NCI-H322M", "value": 0.45, "unit": "µM"}, {"measurement": "GI50", "setting": "NCI-60 cancer cell lines; NCI-H460, Non-Small Cell Lung Cancer, NCI-H460", "value": 0.31, "unit": "µM"}, {"measurement": "GI50", "setting": "NCI-60 cancer cell lines; NCI-H522, Non-Small Cell Lung Cancer, NCI-H522", "value": 0.96, "unit": "µM"}, {"measurement": "GI50", "setting": "NCI-60 cancer cell lines; OVCAR-3, Ovarian Cancer, OVCAR-3", "value": 1.05, "unit": "µM"}, {"measurement": "GI50", "setting": "NCI-60 cancer cell lines; OVCAR-4, Ovarian Cancer, OVCAR-4", "value": 0.34, "unit": "µM"}, {"measurement": "GI50", "setting": "NCI-60 cancer cell lines; OVCAR-5, Ovarian Cancer, OVCAR-5", "value": 2.12, "unit": "µM"}, {"measurement": "GI50", "setting": "NCI-60 cancer cell lines; OVCAR-8, Ovarian Cancer, OVCAR-8", "value": 0.4, "unit": "µM"}, {"measurement": "GI50", "setting": "NCI-60 cancer cell lines; Ovarian Cancer, NCl/ADR-RES", "value": 1.16, "unit": "µM"}, {"measurement": "GI50", "setting": "NCI-60 cancer cell lines; Prostate Cancer, PC-3", "value": 0.86, "unit": "µM"}, {"measurement": "GI50", "setting": "NCI-60 cancer cell lines; RPMI-8226, Leukemia, RPMI-8226", "value": 0.27, "unit": "µM"}, {"measurement": "GI50", "setting": "NCI-60 cancer cell lines; RXF 393, Renal Cancer, RXF 393", "value": 1.29, "unit": "µM"}, {"measurement": "GI50", "setting": "NCI-60 cancer cell lines; Renal Cancer, U0-31", "value": 0.77, "unit": "µM"}, {"measurement": "GI50", "setting": "NCI-60 cancer cell lines; SF-268, CNS Cancer, SF-268", "value": 0.95, "unit": "µM"}, {"measurement": "GI50", "setting": "NCI-60 cancer cell lines; SF-295, CNS Cancer, SF-295", "value": 1.16, "unit": "µM"}, {"measurement": "GI50", "setting": "NCI-60 cancer cell lines; SF-539, CNS Cancer, SF-539", "value": 1.61, "unit": "µM"}, {"measurement": "GI50", "setting": "NCI-60 cancer cell lines; SK-MEL-2, Melanoma, SK-MEL-2", "value": 1.71, "unit": "µM"}, {"measurement": "GI50", "setting": "NCI-60 cancer cell lines; SK-MEL-5, Melanoma, SK-MEL-5", "value": 0.7, "unit": "µM"}, {"measurement": "GI50", "setting": "NCI-60 cancer cell lines; SK-MEL-28, Melanoma, SK-MEL-28", "value": 1.53, "unit": "µM"}, {"measurement": "GI50", "setting": "NCI-60 cancer cell lines; SK-OV-3, Ovarian Cancer, SK-OV-3", "value": 1.05, "unit": "µM"}, {"measurement": "GI50", "setting": "NCI-60 cancer cell lines; SN12C, Renal Cancer, SN12C", "value": 0.33, "unit": "µM"}, {"measurement": "GI50", "setting": "NCI-60 cancer cell lines; SNB-19, CNS Cancer, SNB-19", "value": 0.54, "unit": "µM"}, {"measurement": "GI50", "setting": "NCI-60 cancer cell lines; SNB-75, CNS Cancer, SNB-75", "value": 0.95, "unit": "µM"}, {"measurement": "GI50", "setting": "NCI-60 cancer cell lines; SW-620, Colon Cancer, SW-620", "value": 0.16, "unit": "µM"}, {"measurement": "GI50", "setting": "NCI-60 cancer cell lines; T47D, Breast Cancer, T-47D", "value": 1.55, "unit": "µM"}, {"measurement": "GI50", "setting": "NCI-60 cancer cell lines; TK-10, Renal Cancer, TK-10", "value": 1.33, "unit": "µM"}, {"measurement": "GI50", "setting": "NCI-60 cancer cell lines; U-251, CNS Cancer, U251", "value": 0.64, "unit": "µM"}, {"measurement": "GI50", "setting": "NCI-60 cancer cell lines; UACC-62, Melanoma, UACC-62", "value": 1.03, "unit": "µM"}, {"measurement": "GI50", "setting": "NCI-60 cancer cell lines; UACC-257, Melanoma, UACC-257", "value": 1.69, "unit": "µM"}, {"measurement": "mean GI50 across NCI-60 panel (MGM)", "setting": "NCI-60 cancer cell lines; average of GI50 values across the entire panel of NCI-60 cancer cell lines", "value": 720, "unit": "nM"}, {"measurement": "Top1 Inhibiton", "setting": "human topoisomerase I", "value": "++ (medium inhibition, ++, MYC expression inhibited at 2.0 μM, or no clear dose-dependent MYC inhibition)"}]}]}
